Measured values reported in US20230119764A1, “APPLICATION OF DIMETHYL BERBAMINE COMPOUND IN INHIBITION OF SARS-COV-2” (priority 2020, published 2023).
“Also recorded” adds a separate entry of the source. Read-outs that look alike come from different tables or passages of the source.

What was measured:
[1] = system: SARS-CoV-2 virus (nCoV-2019BetaCoV/Wuhan/WIV04/2019 isolate); experiment: microbe, parasite or virus in culture; type: cell-based; details: for EC50: Severe acute respiratory syndrome coronavirus 2, Vero C1008, Example 2, no drug pretreatment, read-out: EC50
[2] = Drug cytotoxicity on cells, CellTiter-Glo kit; type: cell-based; details: African green monkey; Vero-E6 cells, 24 hours; unit inferred
Procedure: (§1) 1.5.1 Vero E6 cell culture: 0.1 ml of 0.25% trypsin, 5 ml of 0.02% EDTA were added to a culture flask full of cells, the digestion was carried out at 37° C. for 5 minutes, then the digestion solution was discarded, the cell culture solution was added and then mixed by pipetting up-down. The cells were subcultured at 1:3, reached confluence within 3 days, formulated into 100,000 cells per ml, inoculated to a 96-well cell culture plate, 0.1 ml per well, and cultured at 37° C., 5% CO2 for 24 hours, and the cells grew into monolayer was used for experiment.
(§2) 1.5.2 Experiment of Drug Cytotoxicity on Cells:
(§3) The detection of drug cytotoxicity was determined using CellTiter-Glo kit (Promega). Specific steps were as follows:
(§4) (1) 1×10^4 Vero-E6 cells were inoculated in a 96-well plate and cultured at 37° C. for 8 hours.
(§5) (2) The stock solution of drug was diluted with MEM medium containing 2% FBS to the desired concentration, the original medium in the 96-well plate was discarded, and 100 μL of the drug-containing MEM medium was taken and added to the corresponding wells, so that the final concentrations of drug in the wells were those shown in Tables 1 to 3, respectively, and three replicate wells were made for each concentration. At the same time, a vehicle control (adding DMSO or PBS, and 2% FBS-containing MEM medium without drug to the cell wells) and a blank control (adding DMSO and 2% FBS-containing MEM medium to the wells without cells) were set. After the addition of drug, the cells were incubated at 37° C. for 24 hours.
(§6) (3) 100 μL of CellTiter-Glo solution (Promega) was added to the wells to be tested, and mixed by shaking for 2 min to fully lyse the cells, incubated at room temperature for 10 minutes, and readings of chemiluminescence signals […] were obtained on a microplate reader (purchased from Molecular Devices, model: SpectraMax M5). The cell viability was calculated by taking the readings into the following formula:
(§7) Cell viability (%)=(A(drug treatment group)−A(blank control))/(A(vehicle control)−A(blank control))×100%
(§8) where A represented the reading on the microplate reader.

[3] = system: Vero-E6 cells; experiment: Drug cytotoxicity on cells, CellTiter-Glo kit; type: cell-based; details: Vero-E6, 24 hours
Procedure: as §1, §2, §3, §4, §5, §6, §7, §8

[4] = system: SARS-CoV-2 virus (nCoV-2019BetaCoV/Wuhan/WIV04/2019 isolate); experiment: microbe, parasite or virus in culture; type: cell-based; details: for Copy number of viral genome (MOI = 0.01): MOI 0.01, Vero E6 supernatant; for Copy number of viral genome (MOI = 0.01) / Copy number of viral genome (MOI = 0.05): 48 h, copy number per milliliter; for Copy number of viral genome (MOI = 0.05): MOI 0.05, Vero E6 supernatant; for EC50: Severe acute respiratory syndrome coronavirus 2, Vero C1008, Example 1, drug pretreatment 1 hour, read-out: EC50
[5] = system: SARS-CoV-2 virus; details: previous studies, Wang et al., 2020; cited from earlier work

With `CCN(CC)CCCC(C)Nc1ccnc2cc(Cl)ccc12` (stereo not drawn) [Chloroquine phosphate, chloroquine phosphate] the “Inhibition of SARS-CoV-2 (in words)” value ([1]; Example 2, drug added after virus infection of cells) was “obvious inhibitory effects; also recorded: inhibitory activity”, the EC50 ([1]; MOI 0.01, Vero E6) was 4.52 µM and the EC50 ([1]; MOI 0.05, Vero E6) was 3.63 µM. For the same compound, the CC50 at 24 h [2] was 92.9 µM, the “Cell viability (% of vehicle control)” value ([3]; 3.70 μM) was 93.26 % of vehicle control and the “Cell viability (% of vehicle control)” value ([3]; 11.11 μM) was 90.60 % of vehicle control. The “Cell viability (% of vehicle control)” value ([3]; 33.33 μM) was 72.67 % of vehicle control, the “Cell viability (% of vehicle control)” value ([3]; 66.67 μM) was 68.35 % of vehicle control and the “Cell viability (% of vehicle control)” value ([3]; 100 μM) was 44.84 % of vehicle control. The “Cell viability (% of vehicle control)” value ([3]; 200 μM) was 41.01 % of vehicle control, the “Cell viability (% of vehicle control)” value ([3]; 300 μM) was 0.63 % of vehicle control and the “Copy number of viral genome (MOI = 0.01)” value ([4]; 0.21 μM) was 3451032833. For the same compound, the “Copy number of viral genome (MOI = 0.05)” value ([4]; 0.21 μM) was 5871676583, the “Copy number of viral genome (MOI = 0.01)” value ([4]; 0.62 μM) was 2407772083 and the “Copy number of viral genome (MOI = 0.05)” value ([4]; 0.62 μM) was 5663562000. The “Copy number of viral genome (MOI = 0.01)” value ([4]; 1.85 μM) was 1500455250, the “Copy number of viral genome (MOI = 0.05)” value ([4]; 1.85 μM) was 4521430250 and the “Copy number of viral genome (MOI = 0.01)” value ([4]; 5.56 μM) was 692991541. The “Copy number of viral genome (MOI = 0.05)” value ([4]; 5.56 μM) was 1814432458, the “Copy number of viral genome (MOI = 0.01)” value ([4]; 16.67 μM) was 11907226 and the “Copy number of viral genome (MOI = 0.05)” value ([4]; 16.67 μM) was 52973263. For the same compound, the “Copy number of viral genome (MOI = 0.01)” value ([4]; 50 μM) was 1019575, the “Copy number of viral genome (MOI = 0.05)” value ([4]; 50 μM) was 1914748 and the “Inhibition of SARS-CoV-2 (in words)” value ([4]; Example 1, in vitro, Vero E6) was “obvious inhibitory effects; also recorded: inhibitory activity”. The EC50 ([4]; MOI 0.01, Vero E6) was 1540 nM, the EC50 ([4]; MOI 0.05, Vero E6) was 3770 nM and the “Inhibition of replication of SARS-CoV-2 virus (in words)” value [5] was “can effectively inhibit the replication”.
